Experimental findings from US7504403B2, “Substituted heterocyclic compounds and methods of use” (Amgen Inc., priority 2004, dated 2009) are described below.

The assay deals with LPS induced TNF release. Description: Lipopolysaccharide-Activated THP1 Cell TNF Production Assay. Type of assay: cell-based. As to conditions: Homo sapiens, THP-1. Here is the method: Lipopolysaccharide-Activated THP1 Cell TNF Production Assay
THP1 cells are resuspended in fresh THP1 media (RPMI 1640, 10% heat-inactivated FBS, 1×PGS, 1×NEAA, plus 30 μM βME) at a concentration of 1E6/mL. One hundred microliters of cells per well are plated in a polystyrene 96-well tissue culture. One microgram per mL of bacterial LPS is prepared in THP1 media and is transferred to the wells. Test compounds are dissolved in 100% DMSO and are serially diluted 3 fold in a polypropylene 96-well microtiter plate (drug plate). HI control and LO control wells contain only DMSO. One microliter of test compound from the drug plate followed by 10 μL of LPS are transferred to the cell plate. The treated cells are induced to synthesize and secrete TNF-α at 37° C. for 3 h. Forty microliters of conditioned media are transferred to a 96-well polypropylene plate containing 110 μL of ECL buffer (50 mM Tris-HCl pH 8.0, 100 mM NaCl, 0.05% Tween 20, 0.05% NaN3 and 1%FBS) supplemented with 0.44 nM MAB610 monoclonal Ab (R&D Systems), 0.34 nM ruthenylated AF210NA polyclonal Ab (R&D Systems) and 44 μg/mL sheep anti-mouse M280 Dynabeads (Dynal). After a 2 h incubation at room temperature with shaking, the reaction is read on the ECL M8 Instrument (IGEN Inc.). A low voltage is applied to the ruthenylated TNF-α immune complexes, which in the presence of TPA (the active component in Origlo), results in a cyclical redox reaction generating light at […]. The amount of secreted TNF-α in the presence of compound compared with that in the presence of DMSO vehicle alone (HI control) is calculated using the formula: % control (POC)=(cpd−average LO)/(average HI−average LO)*100. Data (consisting of POC and inhibitor concentration in μM) is fitted to a 4-parameter equation (y=A+((B−A)/(1+((x/C)^D))), where A is the minimum y (POC) value, B is the maximum y (POC), C is the x (cpd concentration) at the point of inflection and D is the slope factor) using a Levenburg-Marquardt non-linear regression algorithm.
Usually IC50 stands for the point on the concentration scale where inhibition reaches its midpoint. A lower IC50 goes with greater potency in that assay. Regarding `C[C@H](Cc1cccc(CN)c1)Nc1nccc(N2CCCn3c2nc(-c2ccccc2)cc3=O)n1` [9-{2-[2-(3-aminomethyl-phenyl)-1(R)-methyl-ethylamino]-pyrimidin-4-yl}-2-phenyl-6,7,8,9-tetrahydro-pyrimido[1,2-a]pyrimidin-4-one], the IC50 was at most 20 µM.

The molecule `Cc1ccc(-c2cc(=O)n3c(n2)N(c2ccnc(N[C@@H](C)c4ccccc4)n2)CCC3)cc1C` [Example 1, 2-(3,4-Dimethyl-phenyl)-9-[2-(1(S)-phenyl-ethylamino) -pyrimidin-4-yl]-6,7,8,9-tetrahydro-pyrimido[1,2-a]pyrimidin-4-one] registered an IC50 of at most 20 µM.

For the molecule `C[C@H](Nc1nccc(N2CCCn3c2nc(-c2ccccc2F)cc3=O)n1)c1ccccc1` [Example 2, 2-(2-fluorophenyl)-9-[2-(1(S)-phenyl-ethylamino)-pyrimidin-4-yl]-6,7,8,9-tetrahydro-pyrimido[1,2-a]pyrimidin-4-one], the IC50 was at most 20 µM.

As for `C[C@H](Nc1nccc(N2CCCn3c2nc(-c2ccccc2C(F)(F)F)cc3=O)n1)c1ccccc1` [Example 3, 2-(2-trifluoromethylphenyl)-9-[2-(1(S)-phenyl-ethylamino) -pyrimidin-4-yl]-6,7,8,9-tetrahydro-pyrimido[1,2-a]pyrimidin-4-one], the IC50 is at most 20 µM.

`C[C@H](Nc1nccc(N2CCCn3c2nc(-c2ccc(F)cc2)cc3=O)n1)c1ccccc1` [Example 4, 2-(4-fluorophenyl)-9-[2-(1(S)-phenyl-ethylamino)-pyrimidin-4-yl]-6,7,8,9-tetrahydro-pyrimido[1,2-a]pyrimidin-4-one] yielded an IC50 of at most 20 µM.

The molecule `COc1ccc(-c2cc(=O)n3c(n2)N(c2ccnc(N[C@@H](C)c4ccccc4)n2)CCC3)cc1` [Example 5, 2-(4-methoxyphenyl)-9-[2-(1(S)-phenyl-ethylamino)-pyrimidin-4-yl]-6,7,8,9-tetrahydro-pyrimido[1,2-a]pyrimidin-4-one] displayed an IC50 of at most 20 µM.

Consider `C[C@H](Nc1nccc(N2CCCn3c2nc(-c2cccc([N+](=O)[O-])c2)cc3=O)n1)c1ccccc1` [Example 6, 2-(3-nitrophenyl)-9-[2-(1(S)-phenyl-ethylamino)-pyrimidin-4-yl]-6,7,8,9-tetrahydro-pyrimido[1,2-a]pyrimidin-4-one], for which the IC50 was at most 20 µM.

With `C[C@H](Nc1nccc(N2CCCn3c2nc(-c2cccc(N)c2)cc3=O)n1)c1ccccc1` [Example 7, 2-(3-aminophenyl)-9-[2-(1(S)-phenyl-ethylamino)-pyrimidin-4-yl]-6,7,8,9-tetrahydro-pyrimido[1,2-a]pyrimidin-4-one], the IC50 is at most 20 µM.

On to `C[C@H](Nc1nccc(N2CCCn3c2nc(C(C)(C)C)cc3=O)n1)c1ccccc1` [Example 11, 2-(tert-butyl)-9-[2-(1(S)-phenyl-ethylamino)-pyrimidin-4-yl]-6,7,8,9-tetrahydro-pyrimido[1,2-a]pyrimidin-4-one], for which the IC50 was at most 20 µM.

In turn, `CCc1cccc(-c2cc(=O)n3c(n2)N(c2ccnc(N[C@@H](C)c4ccccc4)n2)CCC3)c1` [Example 12, 2-(3-ethylphenyl)-9-[2-(1(S)-phenyl-ethylamino)-pyrimidin-4-yl]-6,7,8,9-tetrahydro-pyrimido[1,2-a]pyrimidin-4-one] came in with an IC50 of at most 20 µM.

On to `C[C@H](Nc1nccc(N2CCCn3c2nc(-c2ccc(Cl)c(Cl)c2)cc3=O)n1)c1ccccc1` [Example 13, 2-(3,4-dichlorophenyl)-9-[2-(1(S)-phenyl-ethylamino) -pyrimidin-4-yl]-6,7,8,9-tetrahydro-pyrimido[1,2-a]pyrimidin-4-one], for which the IC50 was at most 20 µM.

The molecule `CC(Cc1cccc(CN)c1)Nc1nccc(N2CCCn3c2nc(-c2ccccc2)c(N)c3=O)n1` (stereo not drawn) [Example 14, 3-Amino-9-{2-[2-(3-aminomethyl-phenyl)-1-methyl-ethylamino]-pyrimidin-4-yl}-2-phenyl-6,7,8,9-tetrahydro-pyrimido[1,2-a]pyrimidin-4-one] had an IC50 of at most 20 µM.

For `O=c1c([N+](=O)[O-])c(-c2ccccc2)nc2n1CCCN2c1ccnc(NCCc2ccccc2)n1` [Example 15, 3-Nitro-9-(2-phenethylamino-pyrimidin-4-yl)-2-phenyl-6,7,8,9-tetrahydro-pyrimido[1,2-a]pyrimidin-4-one], the IC50 is at most 20 µM.

In the case of `Nc1c(-c2ccccc2)nc2n(c1=O)CCCN2c1ccnc(NCCc2ccccc2)n1` [Example 18, 3-Amino-9-(2-phenethylamino-pyrimidin-4-yl) -2-phenyl-6,7,8,9-tetrahydro-pyrimido[1,2-a]pyrimidin-4-one], the IC50 was at most 20 µM.

In the case of `CC(C)NCc1cccc(CC(C)Nc2nccc(N3CCCn4c3nc(-c3ccccc3)cc4=O)n2)c1` (stereo not drawn) [Example 19, 9-(2-{2-[3-(Isopropylamino-methyl)-phenyl]-1-methyl-ethylamino}-pyrimidin-4-yl) -2-phenyl-6,7,8,9-tetrahydro-pyrimido[1,2-a]pyrimidin-4-one], the IC50 is at most 20 µM.

On to `O=c1cc(-c2ccccc2)nc2n1CCCN2c1ccnc(NCc2ccccc2)n1` [Example 29, 9-(2-{2-(benzyl)amino}-pyrimidin-4-yl)-2-phenyl-6,7,8,9-tetrahydro-pyrimido[1,2-a]pyrimidin-4-one], for which the IC50 is at most 20 µM.

`Nc1nccc(N2CCCn3c2nc(-c2ccccc2)cc3=O)n1` [Example 38, 9-(2-{2-amino}-pyrimidin-4-yl)-2-phenyl-6,7,8,9-tetrahydro-pyrimido[1,2-a]pyrimidin-4-one] displayed an IC50 of at most 20 µM.

`CC(Cc1cccc(CN)c1)Nc1nccc(N2CCCn3c2nc(-c2ccccc2)cc3=O)n1` (stereo not drawn) [Example 44, 9-{2-[2-(3-Aminomethyl-phenyl)-1-methyl-ethylamino]-pyrimidin-4-yl}-2-phenyl-6,7,8,9-tetrahydro-pyrimido[1,2-a]pyrimidin-4-one] came in with an IC50 of at most 20 µM.

With `CC(Cc1cccc(CO)c1)Nc1nccc(N2CCCn3c2nc(-c2ccccc2)cc3=O)n1` (stereo not drawn) [Example 47, 9-{2-[2-(3-Hydroxymethyl-phenyl)-1-methyl-ethylamino]-pyrimidin-4-yl}-2-phenyl-6,7,8,9-tetrahydro-pyrimido[1,2-a]pyrimidin-4-one], the IC50 is at most 20 µM.

In the case of `C[C@@H](Cc1cccc(CN)c1)Nc1nccc(N2CCCn3c2nc(-c2ccccc2)cc3=O)n1` [Example 49, 9-{2-[2-(3-Aminomethyl-phenyl)-1(S)-methyl-ethylamino]-pyrimidin-4-yl}-2-phenyl-6,7,8,9-tetrahydro-pyrimido[1,2-a]pyrimidin-4-one], the IC50 was at most 20 µM.

`CC(C)NCCC1CN(c2ccnc(NCCc3ccccc3)n2)c2nc(-c3ccccc3)cc(=O)n2C1` (stereo not drawn) [Example 50, 7-(2-Isopropylamino-ethyl)-9-(2-phenethylamino-pyrimidin-4-yl) -2-phenyl-6,7,8,9-tetrahydro-pyrimido[1,2-a]pyrimidin-4-one] gave an IC50 of at most 20 µM.

`NCCC1CN(c2ccnc(NCCc3ccccc3)n2)c2nc(-c3ccccc3)cc(=O)n2C1` (stereo not drawn) [Example 51, 7-(2-Amino-ethyl)-9-(2-phenethylamino-pyrimidin-4-yl)-2-phenyl-6,7,8,9-tetrahydro-pyrimido[1,2-a]pyrimidin-4-one] displayed an IC50 of at most 20 µM.

As to `O=C(NCCC1CN(c2ccnc(NCCc3ccccc3)n2)c2nc(-c3ccccc3)cc(=O)n2C1)OCc1ccccc1` (stereo not drawn) [Example 52, {2-[6-Oxo-1-(2-phenethylamino-pyrimidin-4-yl)-8-phenyl-1,3,4,6-tetrahydro-2H-pyrimido[1,2-a]pyrimidin-3-yl]-ethyl}-carbamic acid benzyl ester], the IC50 is at most 20 µM.

For the molecule `CCOC(=O)CCC1CN(c2ccnc(NCCc3ccccc3)n2)c2nc(-c3ccccc3)cc(=O)n2C1` (stereo not drawn) [Example 54, 3-[6-oxo-1-(2-phenethylamino-pyrimidin-4-yl)-8-phenyl-1,3,4,6-tetrahydro-2H-pyrimido[1,2-a]pyrimidin-3-yl]-propionic acid ethyl ester], the IC50 is at most 20 µM.

Consider `O=C(O)CCC1CN(c2ccnc(NCCc3ccccc3)n2)c2nc(-c3ccccc3)cc(=O)n2C1` (stereo not drawn) [Example 55, 3-[6-Oxo-1-(2-phenethylamino-pyrimidin-4-yl)-8-phenyl-1,3,4,6-tetrahydro-2H-pyrimido[1,2-a]pyrimidin-3-yl]-propionic acid], for which the IC50 is at most 20 µM.

As to `CC(C)NC(C)c1ccc(CCNc2nccc(N3CCC(=O)N4CC=C(c5ccccc5)N=C43)n2)cc1` (stereo not drawn) [Example 62, 1-(2-{2[4-(1-Isopropylamino-ethyl)-phenyl]-ethylamino}-pyrimidin-4-yl)-8-phenyl-1,2,3,6-tetrahydro-pyrimido[1,2-a]pyrimidin-4-one], the IC50 was at most 20 µM.

The molecule `CC(Cc1ccc(CN)cc1)Nc1nccc(N2CCC(=O)N3CC=C(c4ccccc4)N=C32)n1` (stereo not drawn) [Example 63, 1-{2-[2-(4-Aminomethyl-phenyl)-1-methyl-ethylamino]-pyrimidin-4-yl}-8-phenyl-1,2,3,6-tetrahydro-pyrimido[1,2-a]pyrimidin-4-one] displayed an IC50 of at most 20 µM.
